The source of these data is PMC11542830, “3-nitropyridine analogues as novel microtubule-targeting agents” (PLOS ONE, 2024).

Where two headings read alike, the source gives them in different places.

In assay [1] the test system is HCT-116 cells. The assay can be described thus: 3-day MTS cell viability assay, HCT-116. The format is cell-based. The following applies: Homo sapiens, 72 hours, Fig 1C. The procedure:
(§1) All cancer cell lines (HT-29: colorectal adenocarcinoma, HCT-116: colorectal carcinoma, A549: lung epithelial carcinoma, PC3: prostate adenocarcinoma, Jurkat: acute T-cell leukemia, BC-1: primary effusion lymphoma) and the normal human embryonal lung fibroblast cell line MRC-5 were acquired from the American Type Culture Collection (ATCC). All cell lines were cultured as recommended by the suppliers. Culture media were purchased from Gibco (Thermo Fisher Scientific) and supplemented with 10 to 20% fetal bovine serum (HyClone, GE Healthcare Life Sciences) and 20–25 μg/mL gentamicin (Gibco, Thermo Fisher Scientific). […]
(§2) Cell viability in cancer cell lines treated with compound was measured in a 3-day MTS cell proliferation assay using the CellTiter 96 AQueous Non-Radioactive Cell Proliferation Assay reagent (Promega) according to the manufacturer’s instructions. Absorbance was read at 490 nm on a SaFire II microplate reader (Tecan). CC50 values were calculated by fitting the obtained MTS cell viability data in GraphPad Prism using a 4-parameter log–based fit for inhibitors. Apoptosis induction and cell death upon compound treatment in PBMC was measured using the Alexa Fluor 488 Annexin V/Dead Cell Apoptosis Kit (Thermo Fisher Scientific), with readout on a FACSCanto II flow cytometer (BD Biosciences). […] The compounds were evaluated in duplo in two independent experiments.
Background: Tetrazolium dyes change colour on reduction, which living cells bring about.

For assay [2], the system named is CCRF-CEM. In words: NCI60 5-dose screen, CCRF-CEM. The conditions noted are these: Homo sapiens, leukemia, Fig 1D, read-out: Log10 GI50 (CCRF-CEM) (converted). The format is cell-based. The protocol:
(§3) The screening methodology used in the NCI60 Cell 5-Doses screen is described in detail at https://dtp.cancer.gov/discovery_development/nci-60/methodology.htm. Briefly, cells are seeded in 96 well plates at an appropriate density and incubated for 1 day. After 1 day, some of the plates are processed to determine a time zero density. To the remaining plates, compounds are added over a 5-log M concentration range (1 log dilutions from 10^-4M to 10^-8M). Plates are incubated for two additional days, then fixed and stained with sulforhodamine B. Growth inhibition is calculated relative to cells without drug treatment and the time zero control. The GI50 is the concentration of a compound that causes 50% growth inhibition, relative to the no drug control.

Assay [3] has as its system A549/ATCC. The assay can be described thus: NCI60 5-dose screen, A549/ATCC. The following applies: Homo sapiens, non-small cell lung cancer, Fig 1D, read-out: Log10 GI50 (A549/ATCC) (converted). Type of assay: cell-based. The procedure: as §3
For assay [4], the system named is NCI-H23. The assay can be described thus: NCI60 5-dose screen, NCI-H23. Type of assay: cell-based. The conditions noted are these: Homo sapiens, non-small cell lung cancer, Fig 1D, read-out: Log10 GI50 (NCI-H23) (converted). The protocol:
as §3

In assay [5] the test system is HT29. In words: NCI60 5-dose screen, HT29. The following applies: Homo sapiens, HT-29; colon cancer; Fig 1D; read-out: Log10 GI50 (HT29) (converted). The format is cell-based. The procedure: as §3
The test system of assay [6] is MDA-MB-468. The assay can be described thus: NCI60 5-dose screen, MDA-MB-468. Type of assay: cell-based. The following applies: Homo sapiens, breast cancer, Fig 1D, read-out: Log10 GI50 (MDA-MB-468) (converted). The procedure:
as §3

Assay [7] deals with DU-145. In words: NCI60 5-dose screen, DU-145. Type of assay: cell-based. The following applies: Homo sapiens, prostate cancer, Fig 1D, read-out: Log10 GI50 (DU-145) (converted). The procedure: as §3
For assay [8], the system named is Jurkat cells. The assay can be described thus: Cell cycle analysis (DAPI, high content imaging), Jurkat. The following applies: 24 hours. The format is cell-based, human. The protocol: as §2, with “Biosciences). For cell cycle analysis, Jurkat cells were seeded at 400,000 cells per well in 12-well tissue culture plates and treated with the test compounds at the indicated concentrations for 24 h. Cells were then harvested by centrifugation at 400 x g, washed in PBS and transferred to an 8-well μ-Slide (Ibidi) that had been pretreated with 0.1% (w/v) poly-L-lysine (Sigma). Cells were allowed to adhere to the slides, fixed with 4% PFA in PBS for 10 minutes, washed and stained with DAPI.” for “Biosciences).”

Assay [9] has as its system TK-10. The assay can be described thus: NCI60 5-dose screen, TK-10. Type of assay: cell-based. The conditions noted are these: Homo sapiens, renal cancer, Fig 1D, read-out: Log10 GI50 (TK-10) (converted). The procedure: as §3
For assay [10], the system named is SK-MEL-28. The assay can be described thus: NCI60 5-dose screen, SK-MEL-28. Type of assay: cell-based. The conditions noted are these: Homo sapiens, melanoma, Fig 1D, read-out: Log10 GI50 (SK-MEL-28) (converted). The protocol: as §3
The test system of assay [11] is OVCAR-8. The assay can be described thus: NCI60 5-dose screen, OVCAR-8. Type of assay: cell-based. The following applies: Homo sapiens, ovarian cancer, Fig 1D, read-out: Log10 GI50 (OVCAR-8) (converted). The procedure:
as §3

Assay [12] deals with BC-1 cells. The assay can be described thus: 3-day MTS cell viability assay, BC-1. The format is cell-based. The following applies: Homo sapiens, BC1, 72 hours, Fig 1C. The protocol:
as §1, §2

For assay [13], the system named is NCI-H322M. In words: NCI60 5-dose screen, NCI-H322M. Type of assay: cell-based. The conditions noted are these: Homo sapiens, non-small cell lung cancer, Fig 1D, read-out: Log10 GI50 (NCI-H322M) (converted). The protocol: as §3
The test system of assay [14] is Jurkat cells. In words: Apoptosis induction, annexin V/PI staining, Jurkat. The format is cell-based, human. The following applies: 24 hours, dose-dependent.
Assay [15] has as its system SF-539. In words: NCI60 5-dose screen, SF-539. Type of assay: cell-based. The following applies: Homo sapiens, CNS cancer, Fig 1D, read-out: Log10 GI50 (SF-539) (converted). The protocol:
as §3

Assay [16] concerns NCI-60 Human Tumor Cell Lines. The assay can be described thus: NCI-60 Human Tumor Cell Lines Screen (whole panel). Type of assay: cell-based. The following applies: NCI-60 panel; for GI50: Homo sapiens, mean across all cell lines. The protocol: as §3
Assay [17] concerns KM12. The assay can be described thus: NCI60 5-dose screen, KM12. Type of assay: cell-based. The conditions noted are these: Homo sapiens, colon cancer, Fig 1D, read-out: Log10 GI50 (KM12) (converted). The protocol:
as §3

The subject of assay [18] is HOP-62. The assay can be described thus: NCI60 5-dose screen, HOP-62. Type of assay: cell-based. The following applies: Homo sapiens, non-small cell lung cancer, Fig 1D, read-out: Log10 GI50 (HOP-62) (converted). The protocol: as §3
The subject of assay [19] is SW-620. The assay can be described thus: NCI60 5-dose screen, SW-620. The format is cell-based. The following applies: Homo sapiens, colon cancer, Fig 1D, read-out: Log10 GI50 (SW-620) (converted). The procedure: as §3
Setting [20] is: Fig 1D, read-out: mean GI50 (log10) (converted).
Where [21] appears, read: read-out: mean GI50 across the panel.

Take `Cc1cc(C)cc(Nc2ccc([N+](=O)[O-])c(NCCN3CCOCC3)n2)c1` [Compound 4AZA2891, 6-(3,5-dimethylanilino)-2-(2-morpholinoethylamino)-3-nitropyridine]: the IC50 (usually the concentration that inhibits the measured activity by half) turned out to be 17.4 nM in [1] and 8.5 nM in assay [12]. Also, the GI50 was 33.1 nM in assay [2]; 20 nM in assay [3]; 27.5 nM in [4]; 18.6 nM in [5]; less than 10 nM in assay [6]; 41.7 nM in assay [7]. The GI50 in [9] is 12900 nM; in assay [10], 2750 nM; in assay [11] it was 37.2 nM; in assay [13], 81.3 nM; in assay [15] it was less than 10 nM; in assay [16] (setting [20]), 35.5 nM. Also, the GI50 is 35.5 nM in assay [16] (setting [21]), less than 10 nM in [17], 30.2 nM in assay [18] and 14.8 nM in [19]. The “effect on cell cycle progression” value in assay [8] is “induce G2 cell cycle arrest”. Also, the apoptosis induction result in assay [14] was “induce apoptosis”.
For `Cc1ccnc(Nc2ccc([N+](=O)[O-])c(NCCN3CCOCC3)n2)c1` [Compound 4AZA2996, N^6-(4-methylpyridin-2-yl)-N^2-(2-morpholinoethyl)-3-nitropyridine-2,6-diamine], the IC50 in assay [1] was determined as 10 nM; in assay [12], 5.9 nM. Besides, the GI50 in assay [2] is 26.3 nM; in [3], less than 10 nM; in assay [4] it was 15.5 nM; in [5], less than 10 nM; in [6] it was 27.5 nM; in assay [7] it was 25.7 nM. For the same compound, the GI50 in assay [9] was 18600 nM; in [10], 12600 nM; in [11] it was 20 nM; in assay [13], 46.8 nM; in [15] it was less than 10 nM; in assay [16] (setting [20]), 21.9 nM. Moreover, the GI50 in assay [16] (setting [21]) was 21.9 nM; in assay [17] it was less than 10 nM; in assay [18], less than 10 nM; in [19], less than 10 nM. Besides, in [8], the “effect on cell cycle progression” value is “induce G2 cell cycle arrest”. Moreover, the apoptosis induction result in assay [14] is given as “induce apoptosis”. In addition, the “number of cell lines with GI50 lower than 10 nM” value in assay [16] (out of the cell lines tested) is reported as 31 of the 50.
